Structures can show the parent of a compound that is named as a salt.
Assay: pH-stability profile at 55° C. of doxorubicin.HCl solutions in sterile water, 5% dextrose, 0.9% saline
Assay type: physicochemical
Settings: for Doxorubicin.HCl % stability: 55° C.

- Doxorubicin.HCl % stability (5% dextrose, pH 2.0 buffer, 24 hours): 75.9%
- Doxorubicin.HCl % stability (5% dextrose, pH 2.0 buffer, 34 hours): 68.3%
- Doxorubicin.HCl % stability (5% dextrose, pH 2.0 buffer, 48 hours): 54.1%
- Doxorubicin.HCl % stability (5% dextrose, pH 2.0 buffer, 72 hours): 38.4%
- Doxorubicin.HCl % stability (5% dextrose, pH 2.5 buffer, 0 hours): 100.0%
- Doxorubicin.HCl % stability (5% dextrose, pH 2.5 buffer, 8 hours): 96.4%
- Doxorubicin.HCl % stability (5% dextrose, pH 2.5 buffer, 16 hours): 92.6%
- Doxorubicin.HCl % stability (5% dextrose, pH 2.5 buffer, 24 hours): 89.5%
- Doxorubicin.HCl % stability (5% dextrose, pH 2.5 buffer, 34 hours): 85.5%
- Doxorubicin.HCl % stability (5% dextrose, pH 2.5 buffer, 48 hours): 76.2%
- Doxorubicin.HCl % stability (5% dextrose, pH 2.5 buffer, 72 hours): 66.3%
- Doxorubicin.HCl % stability (5% dextrose, pH 3.0 buffer, 0 hours): 100.0%
- Doxorubicin.HCl % stability (5% dextrose, pH 3.0 buffer, 16 hours): 96.6%
- Doxorubicin.HCl % stability (5% dextrose, pH 3.0 buffer, 24 hours): 92.7%
- Doxorubicin.HCl % stability (5% dextrose, pH 3.0 buffer, 48 hours): 83.3%
- Doxorubicin.HCl % stability (5% dextrose, pH 3.0 buffer, 72 hours): 76.4%
- Doxorubicin.HCl % stability (5% dextrose, pH 3.0 buffer, 96 hours): 68.0%
- Doxorubicin.HCl % stability (5% dextrose, pH 3.0 buffer, 120 hours): 61.1%
- Doxorubicin.HCl % stability (5% dextrose, pH 3.5 buffer, 0 hours): 100.0%
- Doxorubicin.HCl % stability (5% dextrose, pH 3.5 buffer, 16 hours): 95.7%
- Doxorubicin.HCl % stability (5% dextrose, pH 3.5 buffer, 24 hours): 93.7%
- Doxorubicin.HCl % stability (5% dextrose, pH 3.5 buffer, 48 hours): 81.8%
- Doxorubicin.HCl % stability (5% dextrose, pH 3.5 buffer, 72 hours): 66.8%
- Doxorubicin.HCl % stability (5% dextrose, pH 3.5 buffer, 96 hours): 61.6%
- Doxorubicin.HCl % stability (5% dextrose, pH 4.0 buffer, 0 hours): 100.0%
- Doxorubicin.HCl % stability (5% dextrose, pH 4.0 buffer, 8 hours): 95.5%
- Doxorubicin.HCl % stability (5% dextrose, pH 4.0 buffer, 16 hours): 85.6%
- Doxorubicin.HCl % stability (5% dextrose, pH 4.0 buffer, 48 hours): 65.5%
- Doxorubicin.HCl % stability (5% dextrose, pH 4.0 buffer, 72 hours): 53.9%
- Doxorubicin.HCl % stability (5% dextrose, pH 5.0 buffer, 0 hours): 100.0%
- Doxorubicin.HCl % stability (5% dextrose, pH 5.0 buffer, 8 hours): 94.7%
- Doxorubicin.HCl % stability (5% dextrose, pH 5.0 buffer, 16 hours): 83.2%
- Doxorubicin.HCl % stability (5% dextrose, pH 5.0 buffer, 24 hours): 79.9%
- Doxorubicin.HCl % stability (5% dextrose, pH 5.0 buffer, 34 hours): 70.4%
- Doxorubicin.HCl % stability (5% dextrose, pH 5.0 buffer, 48 hours): 57.8%
- Doxorubicin.HCl % stability (5% dextrose, pH 5.5 buffer, 0 hours): 100.0%
- Doxorubicin.HCl % stability (5% dextrose, pH 5.5 buffer, 8 hours): 92.5%
- Doxorubicin.HCl % stability (5% dextrose, pH 5.5 buffer, 16 hours): 73.8%
- Doxorubicin.HCl % stability (5% dextrose, pH 5.5 buffer, 24 hours): 62.6%
- Doxorubicin.HCl % stability (5% dextrose, pH 5.5 buffer, 34 hours): 54.8%
- Kobs × 10^3 (sterile water, Acetate pH 4.0, 55° C.): 269.8 1/days
- Kobs × 10^3 (sterile water, Acetate pH 5.0, 55° C.): 322.6 1/days
- Kobs × 10^3 (sterile water, Acetate pH 5.5, 55° C.): 415.4 1/days
- Kobs × 10^3 (sterile water, Formate pH 3.5, 55° C.): 96.7 1/days
- Kobs × 10^3 (sterile water, Glycine-HCl pH 2.0, 55° C.): 309.5 1/days
- Kobs × 10^3 (sterile water, Glycine-HCl pH 2.5, 55° C.): 138.3 1/days
- Kobs × 10^3 (sterile water, Glycine-HCl pH 3.0, 55° C.): 93.1 1/days
- Doxorubicin.HCl % stability (sterile water, pH 2.0 buffer, 0 hours): 100.0%
- Doxorubicin.HCl % stability (sterile water, pH 2.0 buffer, 8 hours): 93.6%
- Doxorubicin.HCl % stability (sterile water, pH 2.0 buffer, 16 hours): 82.6%
- Doxorubicin.HCl % stability (sterile water, pH 2.0 buffer, 24 hours): 76.9%
- Doxorubicin.HCl % stability (sterile water, pH 2.0 buffer, 48 hours): 56.6%
- Doxorubicin.HCl % stability (sterile water, pH 2.0 buffer, 72 hours): 39.6%
- Doxorubicin.HCl % stability (sterile water, pH 2.5 buffer, 0 hours): 100.0%
- Doxorubicin.HCl % stability (sterile water, pH 2.5 buffer, 8 hours): 96.7%
- Doxorubicin.HCl % stability (sterile water, pH 2.5 buffer, 16 hours): 92.1%
- Doxorubicin.HCl % stability (sterile water, pH 2.5 buffer, 24 hours): 86.2%
- Doxorubicin.HCl % stability (sterile water, pH 2.5 buffer, 48 hours): 78.2%
- Doxorubicin.HCl % stability (sterile water, pH 3.0 buffer, 0 hours): 100.0%
- Doxorubicin.HCl % stability (sterile water, pH 3.0 buffer, 8 hours): 97.8%
- Doxorubicin.HCl % stability (sterile water, pH 3.0 buffer, 16 hours): 93.9%
- Doxorubicin.HCl % stability (sterile water, pH 3.0 buffer, 24 hours): 91.4%
- Doxorubicin.HCl % stability (sterile water, pH 3.0 buffer, 48 hours): 84.7%
- Doxorubicin.HCl % stability (sterile water, pH 3.0 buffer, 72 hours): 76.1%
- Doxorubicin.HCl % stability (sterile water, pH 3.0 buffer, 120 hours): 62.8%
- Doxorubicin.HCl % stability (sterile water, pH 3.5 buffer, 0 hours): 100.0%
- Doxorubicin.HCl % stability (sterile water, pH 3.5 buffer, 8 hours): 95.8%
- Doxorubicin.HCl % stability (sterile water, pH 3.5 buffer, 16 hours): 92.7%
- Doxorubicin.HCl % stability (sterile water, pH 3.5 buffer, 24 hours): 90.4%
- Doxorubicin.HCl % stability (sterile water, pH 3.5 buffer, 48 hours): 81.1%
- Doxorubicin.HCl % stability (sterile water, pH 3.5 buffer, 72 hours): 75.6%
- Doxorubicin.HCl % stability (sterile water, pH 3.5 buffer, 120 hours): 61.0%
- Doxorubicin.HCl % stability (sterile water, pH 4.0 buffer, 0 hours): 100.0%
- Doxorubicin.HCl % stability (sterile water, pH 4.0 buffer, 8 hours): 88.0%
- Doxorubicin.HCl % stability (sterile water, pH 4.0 buffer, 16 hours): 82.7%
- Doxorubicin.HCl % stability (sterile water, pH 4.0 buffer, 24 hours): 76.8%
- Doxorubicin.HCl % stability (sterile water, pH 4.0 buffer, 48 hours): 57.4%
- Doxorubicin.HCl % stability (sterile water, pH 5.0 buffer, 0 hours): 100.0
- Doxorubicin.HCl % stability (sterile water, pH 5.0 buffer, 8 hours): 90.3
- Doxorubicin.HCl % stability (sterile water, pH 5.0 buffer, 16 hours): 83.6
- Doxorubicin.HCl % stability (sterile water, pH 5.0 buffer, 24 hours): 74.9
- Doxorubicin.HCl % stability (sterile water, pH 5.5 buffer, 0 hours): 100.0%
- Doxorubicin.HCl % stability (sterile water, pH 5.5 buffer, 8 hours): 88.3%
- Doxorubicin.HCl % stability (sterile water, pH 5.5 buffer, 16 hours): 69.7%
- Doxorubicin.HCl % stability (sterile water, pH 5.5 buffer, 24 hours): 60.0%
- Doxorubicin.HCl % stability (sterile water, pH 5.5 buffer, 48 hours): 44.1%
SMILES: COc1cccc2c1C(=O)c1c(O)c3c(c(O)c1C2=O)C[C@@](O)(C(=O)CO)C[C@@H]3O[C@H]1C[C@H](N)[C@H](O)[C@H](C)O1 [Doxorubicin.HCl, doxorubicin hydrochloride]

From patent US6632799B2, “Injectable ready-to-use solutions containing an antitumor anthracycline glycoside” (Pharmacia & Upjohn Company, priority 1985, dated 2003)
